Laboratory results as given in PubChem BioAssay (NCI).
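The compound was tested at five concentrations on cells cultured in 96-well plates, with a 48-hour exposure period. Abbreviation: GI50, concentration required for 50% inhibition of growth. TGI marks complete inhibition of growth.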

How the values were obtained:
Assay in all cases: DTP human tumour cell line panel, 48 h
MOLT-4 leukemia = system: MOLT-4 leukemia
U251 CNS = system: U251 CNS
SK-MEL-28 melanoma = system: SK-MEL-28 melanoma
OVCAR-3 ovarian = system: OVCAR-3 ovarian
OVCAR-5 ovarian = system: OVCAR-5 ovarian
SF-295 CNS = system: SF-295 CNS
DMS 114 small cell lung = system: DMS 114 small cell lung
A549 NSCLC = system: A549 NSCLC
NCI-H23 lung = system: NCI-H23 lung
DLD-1 colon = system: DLD-1 colon
SNB-78 CNS = system: SNB-78 CNS
HS 578T breast = system: HS 578T breast
PC-3 prostate = system: PC-3 prostate
MDA-MB-435 = system: MDA-MB-435
CAKI-1 renal = system: CAKI-1 renal

Row | Compound | TGI (MOLT-4 leukemia) [µM] | TGI (U251 CNS) [µM] | TGI (SK-MEL-28 melanoma) [µM] | TGI (OVCAR-3 ovarian) [µM] | TGI (OVCAR-5 ovarian) [µM] | TGI (SF-295 CNS) [µM] | TGI (DMS 114 small cell lung) [µM] | TGI (A549 NSCLC) [µM] | TGI (NCI-H23 lung) [µM] | TGI (DLD-1 colon) [µM] | TGI (SNB-78 CNS) [µM] | TGI (HS 578T breast) [µM] | TGI (PC-3 prostate) [µM] | TGI (MDA-MB-435) [µM] | TGI (CAKI-1 renal) [µM] | GI50 (CAKI-1 renal) [µM] | GI50 (DMS 114 small cell lung) [µM]
1 | CC(c1cccc2ccccc12)/[N+]([O-])=C/c1ccccc1 (stereo not drawn) | > 100 | > 100 | > 100 | > 100 | > 100 | > 100 | > 100 | > 100 | > 100 | > 100 |  |  |  |  |  |  | 
2 | CCCCc1c2c(nc3c1CCC/C3=C\c1ccccc1)C(=O)C(CN(C)C)CC2 (stereo not drawn) | 11.5 | 32.5 | 28.3 | 39.9 | 33.8 | 33.3 | 34.8 | 37.3 | 31.8 | 33.4 | 45.6 | 70.8 | 29.1 | 37.2 |  |  | 
3 | COc1ccc2c3ccc4c(c3n(C)c2c1)C(=O)c1ccccc1C4=O | > 100 | > 100 | > 100 |  |  | > 100 | > 100 | > 100 | > 100 | > 100 | > 100 |  |  |  |  |  | 
4 | Cc1cc2c(s1)C(=O)c1sccc1C2=O | > 22.4 | 2.55 | 0.377 | 2.19 | 3.29 | 1.15 | 0.6 | 2.03 | 0.36 | 3.36 |  | 2.52 | 4.93 | 0.318 | 3.17 |  | 
5 | CCOP(=O)(OCC)/C(C#N)=C/c1ccco1 | > 100 | > 100 | > 100 |  | > 100 | > 100 | > 100 | > 100 | > 100 | > 100 | > 100 |  |  |  | > 100 |  | 
6 | CC1=NN(C(=O)Cc2ccccc2)C(=O)/C1=C\C=C\c1ccccc1 | > 100 |  | > 100 | > 100 | > 100 | > 100 |  | > 100 | > 100 | > 100 | > 100 |  |  |  | > 100 |  | 
7 | O=C(c1ccncc1)n1nc(-c2ccccc2)c(N=Nc2ccc([N+](=O)[O-])cc2)c1-c1ccccc1 | > 100 |  | > 100 | > 100 |  | > 100 | > 100 | > 100 | > 100 | > 100 | 28 |  |  |  | > 100 |  | 
8 | CC(C)(C)[C@H]1CO[C@]2(C)[C@@H]3C[C@@H]3C(=O)N12 |  | > 100 | > 100 | > 100 | > 100 | > 100 | > 100 | > 100 | > 100 | > 100 | > 100 |  |  |  | > 100 |  | 
9 | CCOC(=O)CC[C@@H](NC(=O)c1ccc(N[C@@H]2c3cc4c(cc3C(c3cc(OC)c(O)c(OC)c3)C3C(=O)OC[C@@H]32)OCO4)cc1)C(=O)OCC (stereo partly drawn) | > 10 | 0.123 | 0.53 | 0.37 | 0.404 | 0.0497 |  |  | 0.0424 | 0.406 | > 10 |  |  |  | 0.0539 |  | 
10 | COC(=O)CC1C(=O)OCc2c1cc1n(c2=O)Cc2c-1nc1ccccc1c2OC (stereo not drawn) | 32.3 | > 100 | > 100 |  | > 100 |  | > 100 | > 100 | 97.9 |  |  |  |  |  | 34.4 |  | 
11 | CCC1(N=[N+]=[N-])C(=O)Nc2cc(C)ccc2C1=O (stereo not drawn) | > 100 | > 100 | > 100 | > 100 | > 100 | > 100 | > 100 | > 100 | > 100 | > 100 | > 100 |  |  |  | > 100 |  | 
12 | [N-]=[N+]=NC1C(Br)C(=O)NC(=O)N1[C@H]1C[C@H](O)[C@@H](CO)O1 (stereo partly drawn) | > 100 | > 100 | > 100 | > 100 | > 100 | > 100 | > 100 | > 100 | > 100 | > 100 | > 100 |  |  |  | > 100 | 66.3 | 90.9
13 | Cc1cc2oc(=O)[nH]c(=S)c2c(C)c1C | > 100 | > 100 | > 100 | > 100 |  | > 100 | > 100 | > 100 | > 100 |  |  |  |  |  |  |  | 
14 | COC[n+]1cc2cc(OC)c(OC)cc2c2ccc3cc(OC)c(OC)cc3c21 | > 100 | > 100 | > 100 | > 100 | > 100 | > 100 | > 100 | > 100 | > 100 | > 100 | > 100 |  |  |  | > 100 |  | 
15 | COc1cc2[nH]c(-c3cccc(N(C)C)c3)cc(=O)c2cc1OC | > 100 |  | > 100 |  | > 100 | > 21.4 | > 49.1 | > 100 | > 100 | > 100 | > 100 |  |  |  |  |  | 
16 | CCN(CC)Cc1cc(Nc2c3ccccc3nc3c2[nH]c2ccccc23)ccc1O | > 100 | 2.79 | 3.47 |  | 3.64 | 2.83 | 3.14 | 2.93 | 2.8 | 5.7 | 4.87 |  |  |  | 4.2 |  | 
17 | COC(=O)c1c(C(=O)OC)c2cc(C(=O)c3ccccc3)ccn2c1Cl | 51.5 | > 100 | > 100 | 63.1 | > 100 | 85.2 | 89.1 | > 100 | 88.1 |  | > 100 |  |  |  |  |  | 
